Columns and labels:
Type in all cases: in vivo
[1] = test system: Alopecurus myosuroides (ALOMY); test: Example B pre-emergence herbicidal activity; conditions: 312 h, rate 250 g/ha, evaluated after 13 days, read-out: Pre-Emergence Activity ALOMY (100=total damage to plant; 0=no damage to plant)
Summary of the method: (§1)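 Damage was rated 13 days after treatment on a 0 (no damage) to 100 (total damage) scale. Pots of soil-sown plants had been sprayed one day after sowing for pre-emergence or at 8 days for post-emergence. Spray: acetone/water (50:50), 0.5% Tween 20.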

[2] = test system: Amaranthus retoflexus (AMARE); test: Example B pre-emergence herbicidal activity; conditions: Amaranthus retroflexus, 312 h, rate 250 g/ha, evaluated after 13 days, read-out: Pre-Emergence Activity AMARE (100=total damage to plant; 0=no damage to plant)
Summary of the method: as §1

Avena fatua (AVEFA) [3] = test: Example B pre-emergence herbicidal activity; conditions: 312 h, rate 250 g/ha, evaluated after 13 days, read-out: Pre-Emergence Activity AVEFA (100=total damage to plant; 0=no damage to plant)
Summary of the method: as §1

[4] = test system: Echinochloa crus-galli (ECHCG); test: Example B pre-emergence herbicidal activity; conditions: 312 h, rate 250 g/ha, evaluated after 13 days, read-out: Pre-Emergence Activity ECHCG (100=total damage to plant; 0=no damage to plant)
Summary of the method: as §1

Setaria faberi (SETFA) [5] = test: Example B pre-emergence herbicidal activity; conditions: 312 h, rate 250 g/ha, evaluated after 13 days, read-out: Pre-Emergence Activity SETFA (100=total damage to plant; 0=no damage to plant)
Summary of the method: as §1

[6] = test system: Alopecurus myosuroides (ALOMY); test: Example B post-emergence herbicidal activity; conditions: 312 h, rate 250 g/ha, evaluated after 13 days, read-out: Post-emergence activity ALOMY (100=total damage to plant; 0=no damage to plant)
Summary of the method: as §1

[7] = test system: Amaranthus retoflexus (AMARE); test: Example B post-emergence herbicidal activity; conditions: Amaranthus retroflexus, 312 h, rate 250 g/ha, evaluated after 13 days, read-out: Post-emergence activity AMARE (100=total damage to plant; 0=no damage to plant)
Summary of the method: as §1

Avena fatua (AVEFA) [8] = test: Example B post-emergence herbicidal activity; conditions: 312 h, rate 250 g/ha, evaluated after 13 days, read-out: Post-emergence activity AVEFA (100=total damage to plant; 0=no damage to plant)
Summary of the method: as §1

[9] = test system: Echinochloa crus-galli (ECHCG); test: Example B post-emergence herbicidal activity; conditions: 312 h, rate 250 g/ha, evaluated after 13 days, read-out: Post-emergence activity ECHCG (100=total damage to plant; 0=no damage to plant)
Summary of the method: as §1

Setaria faberi (SETFA) [10] = test: Example B post-emergence herbicidal activity; conditions: 312 h, rate 250 g/ha, evaluated after 13 days, read-out: Post-emergence activity SETFA (100=total damage to plant; 0=no damage to plant)
Summary of the method: as §1

## COCOc1ccc(-c2nc(C3C(=O)[C@@H]4CC[C@@H](C4)C3=O)c(C)s2)cc1 (some centres unmarked) [Compound T66]
[1]
  pest or weed control at 250 g/ha: 10%
[2]
  pest or weed control at 250 g/ha: 0%
Avena fatua (AVEFA) [3]
  pest or weed control at 250 g/ha: 0%
[4]
  pest or weed control at 250 g/ha: 30%
Setaria faberi (SETFA) [5]
  pest or weed control at 250 g/ha: 30%
[6]
  pest or weed control at 250 g/ha: 10%
[7]
  pest or weed control at 250 g/ha: 0%
Avena fatua (AVEFA) [8]
  pest or weed control at 250 g/ha: 0%
[9]
  pest or weed control at 250 g/ha: 70%
Setaria faberi (SETFA) [10]
  pest or weed control at 250 g/ha: 70%

## COc1cc(F)c(-c2nc(C3C(=O)[C@@H]4CC[C@@H](C4)C3=O)c(C)s2)cc1F (some centres unmarked) [Compound T68]
[1]
  pest or weed control at 250 g/ha: 60%
[2]
  pest or weed control at 250 g/ha: 0%
Avena fatua (AVEFA) [3]
  pest or weed control at 250 g/ha: 70%
[4]
  pest or weed control at 250 g/ha: 0%
Setaria faberi (SETFA) [5]
  pest or weed control at 250 g/ha: 80%
[6]
  pest or weed control at 250 g/ha: 70%
[7]
  pest or weed control at 250 g/ha: 0%
Avena fatua (AVEFA) [8]
  pest or weed control at 250 g/ha: 90%
[9]
  pest or weed control at 250 g/ha: 100%
Setaria faberi (SETFA) [10]
  pest or weed control at 250 g/ha: 100%

## Cc1sc(-c2ccc(F)cc2F)nc1C1C(=O)[C@@H]2CC[C@@H](C2)C1=O (some centres unmarked) [Compound T70]
[1]
  pest or weed control at 250 g/ha: 70%
[2]
  pest or weed control at 250 g/ha: 100%
Avena fatua (AVEFA) [3]
  pest or weed control at 250 g/ha: 30%
[4]
  pest or weed control at 250 g/ha: 60%
Setaria faberi (SETFA) [5]
  pest or weed control at 250 g/ha: 100%
[6]
  pest or weed control at 250 g/ha: 90%
[7]
  pest or weed control at 250 g/ha: 40%
Avena fatua (AVEFA) [8]
  pest or weed control at 250 g/ha: 50%
[9]
  pest or weed control at 250 g/ha: 100%
Setaria faberi (SETFA) [10]
  pest or weed control at 250 g/ha: 100%

## Cc1sc(-c2cc(Cl)ccc2Cl)nc1C1C(=O)[C@@H]2CC[C@@H](C2)C1=O (some centres unmarked) [Compound T73]
[1]
  pest or weed control at 250 g/ha: 0%
[2]
  pest or weed control at 250 g/ha: 0%
Avena fatua (AVEFA) [3]
  pest or weed control at 250 g/ha: 50%
[4]
  pest or weed control at 250 g/ha: 0%
Setaria faberi (SETFA) [5]
  pest or weed control at 250 g/ha: 0%
[6]
  pest or weed control at 250 g/ha: 0%
[7]
  pest or weed control at 250 g/ha: 0%
Avena fatua (AVEFA) [8]
  pest or weed control at 250 g/ha: 0%
[9]
  pest or weed control at 250 g/ha: 20%
Setaria faberi (SETFA) [10]
  pest or weed control at 250 g/ha: 30%

## Cc1sc(-c2ccc(Cl)c(C#N)c2)nc1C1C(=O)C2CCC(C2)C1=O (centres unmarked) [Compound T74]
[1]
  pest or weed control at 250 g/ha: 30%
[2]
  pest or weed control at 250 g/ha: 100%
Avena fatua (AVEFA) [3]
  pest or weed control at 250 g/ha: 0%
[4]
  pest or weed control at 250 g/ha: 20%
Setaria faberi (SETFA) [5]
  pest or weed control at 250 g/ha: 40%
[6]
  pest or weed control at 250 g/ha: 50%
[7]
  pest or weed control at 250 g/ha: 0%
Avena fatua (AVEFA) [8]
  pest or weed control at 250 g/ha: 0%
[9]
  pest or weed control at 250 g/ha: 70%
Setaria faberi (SETFA) [10]
  pest or weed control at 250 g/ha: 90%

## Cc1cc(Cl)ncc1-c1nc(C2C(=O)[C@@H]3CC[C@@H](C3)C2=O)c(C)s1 (some centres unmarked) [Compound T75]
[1]
  pest or weed control at 250 g/ha: 0%
[2]
  pest or weed control at 250 g/ha: 0%
Avena fatua (AVEFA) [3]
  pest or weed control at 250 g/ha: 20%
[4]
  pest or weed control at 250 g/ha: 40%
Setaria faberi (SETFA) [5]
  pest or weed control at 250 g/ha: 90%
[6]
  pest or weed control at 250 g/ha: 20%
[7]
  pest or weed control at 250 g/ha: 0%
Avena fatua (AVEFA) [8]
  pest or weed control at 250 g/ha: 0%
[9]
  pest or weed control at 250 g/ha: 70%
Setaria faberi (SETFA) [10]
  pest or weed control at 250 g/ha: 90%

## COc1ccc(-c2nc(C3C(=O)[C@@H]4CC[C@@H](C4)C3=O)c(C)s2)cc1F (some centres unmarked) [Compound T76]
[1]
  pest or weed control at 250 g/ha: 0%
[2]
  pest or weed control at 250 g/ha: 0%
Avena fatua (AVEFA) [3]
  pest or weed control at 250 g/ha: 0%
[4]
  pest or weed control at 250 g/ha: 50%
Setaria faberi (SETFA) [5]
  pest or weed control at 250 g/ha: 70%
[6]
  pest or weed control at 250 g/ha: 70%
[7]
  pest or weed control at 250 g/ha: 0%
Avena fatua (AVEFA) [8]
  pest or weed control at 250 g/ha: 50%
[9]
  pest or weed control at 250 g/ha: 90%
Setaria faberi (SETFA) [10]
  pest or weed control at 250 g/ha: 80%

## CCOc1ccc(-c2nc(C3C(=O)[C@@H]4CC[C@@H](C4)C3=O)c(C)s2)cc1F (some centres unmarked) [Compound T77]
[1]
  pest or weed control at 250 g/ha: 0%
[2]
  pest or weed control at 250 g/ha: 50%
Avena fatua (AVEFA) [3]
  pest or weed control at 250 g/ha: 0%
[4]
  pest or weed control at 250 g/ha: 0%
Setaria faberi (SETFA) [5]
  pest or weed control at 250 g/ha: 0%
[6]
  pest or weed control at 250 g/ha: 0%
[7]
  pest or weed control at 250 g/ha: 0%
Avena fatua (AVEFA) [8]
  pest or weed control at 250 g/ha: 0%
[9]
  pest or weed control at 250 g/ha: 60%
Setaria faberi (SETFA) [10]
  pest or weed control at 250 g/ha: 70%
